Measured values reported in patent US10703756B2, “Pyrrolo[2,3-D]pyrimidinyl, pyrrolo[2,3-B]pyrazinyl, pyrrolo[2,3-B]pyridinyl acrylamides and epoxides thereof” (Pfizer Inc., priority 2015, dated 2020).

Assays:
JAK3 enzyme [1] = target: T1, JAK3 enzyme (Homo sapiens, UniProt P52333); experiment: JAK Caliper Enzyme Assay at 4 μM ATP; format: biochemical
T1 sequence (P52333 1-1124): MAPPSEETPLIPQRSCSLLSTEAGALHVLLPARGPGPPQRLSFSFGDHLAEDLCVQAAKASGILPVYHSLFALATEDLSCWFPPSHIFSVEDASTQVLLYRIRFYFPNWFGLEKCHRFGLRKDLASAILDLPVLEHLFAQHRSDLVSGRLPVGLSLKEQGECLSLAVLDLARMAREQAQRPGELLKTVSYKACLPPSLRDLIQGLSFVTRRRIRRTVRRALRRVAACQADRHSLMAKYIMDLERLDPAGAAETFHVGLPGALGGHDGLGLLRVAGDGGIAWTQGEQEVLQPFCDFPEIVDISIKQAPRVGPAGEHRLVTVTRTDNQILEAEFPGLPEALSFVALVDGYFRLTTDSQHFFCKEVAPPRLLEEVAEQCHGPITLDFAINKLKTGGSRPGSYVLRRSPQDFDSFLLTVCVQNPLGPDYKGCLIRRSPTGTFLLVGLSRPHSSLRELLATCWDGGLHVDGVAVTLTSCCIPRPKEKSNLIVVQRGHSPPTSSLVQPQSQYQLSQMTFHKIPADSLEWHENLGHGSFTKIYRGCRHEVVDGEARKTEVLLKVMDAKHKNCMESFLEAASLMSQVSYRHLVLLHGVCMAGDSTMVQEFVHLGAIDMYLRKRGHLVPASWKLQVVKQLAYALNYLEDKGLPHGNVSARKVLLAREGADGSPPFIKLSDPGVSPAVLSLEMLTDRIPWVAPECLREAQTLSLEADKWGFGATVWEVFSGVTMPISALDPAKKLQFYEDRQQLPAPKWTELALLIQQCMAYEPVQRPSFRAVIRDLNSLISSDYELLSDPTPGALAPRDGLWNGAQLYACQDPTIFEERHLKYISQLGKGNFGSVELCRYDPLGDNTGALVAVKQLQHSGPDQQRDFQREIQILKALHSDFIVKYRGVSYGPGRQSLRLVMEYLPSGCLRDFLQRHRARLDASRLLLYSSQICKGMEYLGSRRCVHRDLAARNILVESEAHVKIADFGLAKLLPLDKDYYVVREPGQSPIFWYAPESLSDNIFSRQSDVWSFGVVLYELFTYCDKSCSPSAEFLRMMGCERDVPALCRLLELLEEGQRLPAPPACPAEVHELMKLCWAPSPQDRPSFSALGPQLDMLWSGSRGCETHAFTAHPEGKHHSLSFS
Method in brief: (§1)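 Test compounds were diluted in DMSO as an 11-point half-log series from a 600 μM top concentration (DMSO series, not final assay level). Enzyme amount and incubation time were set per enzyme prep to reach 20%-30% phosphorylation. Phosphorylated and unphosphorylated peptide were resolved by microfluidic separation.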

JAK3 enzyme [2] = target: T1, JAK3 enzyme; experiment: JAK Caliper Enzyme Assay at 1 mM ATP; format: biochemical
Method in brief: as §1

Row | IC50 (JAK3 enzyme [1]) [µM] | IC50 (JAK3 enzyme [2]) [µM] | Compound
1 | 0.000327 | 0.03 | C=CC(=O)N1CC[C@@H](Nc2cnc3[nH]cc(C(=O)N[C@@H](C)COC)c3n2)[C@@H](OC)C1 (single isomer, unassigned) [Example 355]
2 | 0.00686 | 0.865 | C=CC(=O)N1CC[C@H](N(C)c2cnc3[nH]cc(C(=O)NCC)c3n2)C1 (single isomer, unassigned) [Example 30]
3 | 0.00358 | 0.651 | C=CC(=O)N1CC[C@@H](Nc2cnc3[nH]cc(C(=O)NCCC(F)(F)F)c3n2)C[C@H]1C (single isomer, unassigned) [Example 23]
4 | 0.0206 | 2.9 | C=CC(=O)N1CCN(c2cnc3[nH]cc(C(=O)N[C@@H](CO)Cc4cccc(C#N)c4)c3n2)CC1(C)C [Example 157, 2-(4-acryloyl-3,3-dimethylpiperazin-1-yl)-N-[(2R)-1-(3-cyanophenyl)-3-hydroxypropan-2-yl]-5H-pyrrolo[2,3-b]pyrazine-7-carboxamide]
5 | 0.0197 | 3.81 | C=CC(=O)N1CCC(Oc2cnc3[nH]cc(C#N)c3n2)CC1 [Example 114, 2-[(1-Acryloylpiperidin-4-yl)oxy]-5H-pyrrolo[2,3-b]pyrazine-7-carbonitrile]
6 | 0.00431 | 0.798 | C=CC(=O)N1C[C@H](Nc2cnc3[nH]cc(C(=O)NCC)c3n2)C[C@H]1COCC [Example 250, 2-{[(3R,5S)-1-acryloyl-5-(ethoxymethyl)pyrrolidin-3-yl]amino}-N-ethyl-5H-pyrrolo[2,3-b]pyrazine-7-carboxamide]
7 | 0.072 | 7.68 | C=CC(=O)N1C[C@@H](C)[C@@H](Nc2cnc3[nH]cc(C(=O)NCCOC)c3n2)C1 (stereo in doubt) [Example 253, 2-[(1-acryloyl-4-methylpyrrolidin-3-yl)amino]-N-(2-methoxyethyl)-5H-pyrrolo[2,3-b]pyrazine-7-carboxamide]
8 | 0.0172 | 2.54 | C=CC(=O)N1CC[C@H](Nc2cnc3[nH]cc(C(=O)NCC(F)(F)F)c3n2)C1 (single isomer, unassigned) [Example 254]
9 | 0.0107 | 1.11 | C#CCNC(=O)c1c[nH]c2ncc(N3CCN(C(=O)C=C)C(C)(C)C3)nc12 [Example 83, 2-(4-acryloyl-3,3-dimethylpiperazin-1-yl)-N-(prop-2-yn-1-yl)-5H-pyrrolo[2,3-b]pyrazine-7-carboxamide]
10 | 0.00512 | 1.32 | C=CC(=O)N1C[C@H](Nc2cnc3[nH]cc(C(=O)NCC)c3n2)[C@](C)(C#N)C1 [Example 251, 2-{[(3R,4R)-1-acryloyl-4-cyano-4-methylpyrrolidin-3-yl]amino}-N-ethyl-5H-pyrrolo[2,3-b]pyrazine-7-carboxamide]
11 | 0.00407 | 0.538 | C=CC(=O)N1CCC(Oc2cnc3[nH]cc(C(=O)NCC4(O)CCC(F)(F)CC4)c3n2)CC1 [Example 207, 2-[(1-acryloylpiperidin-4-yl)oxy]-N-[(4,4-difluoro-1-hydroxycyclohexyl)methyl]-5H-pyrrolo[2,3-b]pyrazine-7-carboxamide]
12 | 0.0751 | 4.88 | C=CC(=O)N1CCC(Oc2cnc3[nH]cc(C(=O)NCC4CC4)c3c2)CC1 [Example 343, 5-[(1-acryloylpiperidin-4-yl)oxy]-N-(cyclopropylmethyl)-1H-pyrrolo[2,3-b]pyridine-3-carboxamide]
13 | 0.00327 | 0.463 | C=CC(=O)N1CCC(Oc2cnc3[nH]cc(C(=O)N[C@@H]4C[C@H]4C(F)(F)F)c3n2)CC1 [Example 216, 2-[(1-acryloylpiperidin-4-yl)oxy]-N-[(1R,2R)-2-(trifluoromethyl)cyclopropyl]-5H-pyrrolo[2,3-b]pyrazine-7-carboxamide]
14 | 0.00542 | 0.926 | C=CC(=O)N1CC[C@@H](CNc2cnc3[nH]cc(C(=O)N[C@H](C)COC)c3n2)C1 (single isomer, unassigned) [Example 20]
